# pIC50: −log10 of the molar value. Read-outs that look alike come from different tables or passages of the source.
# Columns and labels:
# [1] = Cell growth assay (WST-8) for "B" compounds; format: cell-based; conditions: T47D, read-out: Cell growth Inhibition in T47D cell line IC50
# Outline: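 Four-day compound exposure of cells plated at 1500/well the day before. Read-out is WST-8 (10%, 2.5 h, 37 °C) absorbance at 450 nm, normalized to vehicle control over three independent repeats.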
# [2] = biological target: ER (Homo sapiens (Human), UniProt P03372); test: In-cell western blot analysis of ER for "B" compounds; format: cell-based; conditions: 16 hours, read-out: ICW DC50
# Outline: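 ER levels given as a percentage of untreated/DMSO-treated wells (100%). Detection used primary antibodies for 2 h at room temperature followed by 680 and 800 nm fluorescent secondaries at 1:1000 for 1 h, read by LI-COR imaging.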
# Sequence of ER (P03372 whole entry): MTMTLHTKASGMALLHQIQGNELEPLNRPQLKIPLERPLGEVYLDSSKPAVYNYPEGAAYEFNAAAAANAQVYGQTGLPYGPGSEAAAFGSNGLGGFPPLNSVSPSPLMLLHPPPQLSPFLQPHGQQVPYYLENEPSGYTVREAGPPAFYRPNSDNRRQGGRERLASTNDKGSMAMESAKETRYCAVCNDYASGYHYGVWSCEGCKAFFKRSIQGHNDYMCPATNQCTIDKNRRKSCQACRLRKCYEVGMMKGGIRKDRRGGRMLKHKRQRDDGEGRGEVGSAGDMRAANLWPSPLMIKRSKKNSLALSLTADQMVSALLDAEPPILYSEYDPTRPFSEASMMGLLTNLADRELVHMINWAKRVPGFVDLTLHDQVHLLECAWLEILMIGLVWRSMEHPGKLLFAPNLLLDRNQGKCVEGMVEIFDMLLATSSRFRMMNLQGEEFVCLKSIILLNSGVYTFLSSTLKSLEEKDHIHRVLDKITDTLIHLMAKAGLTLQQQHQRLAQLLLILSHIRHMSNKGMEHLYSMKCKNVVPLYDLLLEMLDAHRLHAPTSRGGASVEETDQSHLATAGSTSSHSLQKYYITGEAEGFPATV
DC50 [2],SMILES,pIC50 ([1]; T47D cell line),pIC50 [1]
10 to 100 nM,"O=C1CCC(N2Cc3cc4c(cc3C2=O)CN(CC2COC3(CCN(c5ccc([C@@H]6c7ccc(O)cc7CC[C@@H]6c6ccccc6)cc5)CC3)OC2)C4)C(=O)N1 (stereo partly drawn) [Compound B355, 3-(6-((9-(4-((1R,2S)-6-hydroxy-2-phenyl-1,2,3,4-tetrahydronaphthalen-1-yl)phenyl)-1,5-dioxa-9-azaspiro[5.5]undecan-3-yl)methyl)-1-oxo-3,5,6,7-tetrahydropyrrolo[3,4-f]isoindol-2(1H)-yl)piperidine-2,6-dione]",> 9.00,
10 to 100 nM,"O=C1CCC(N2Cc3cc4c(cc3C2=O)OC[C@@H]2CN(CC(=O)N3CCC5(CC3)CCN(c3ccc([C@@H]6c7ccc(O)cc7CC[C@@H]6c6ccccc6)cc3)CC5)CCN42)C(=O)N1 (stereo partly drawn) [Compound B147, 3-((S)-3-(2-(9-(4-((1R,2S)-6-hydroxy-2-phenyl-1,2,3,4-tetrahydronaphthalen-1-yl)phenyl)-3,9-diazaspiro[5.5]undecan-3-yl)-2-oxoethyl)-8-oxo-1,2,3,4,4a,5,8,10-octahydro-9H-pyrazino[1′,2′:4,5][1,4]oxazino[2,3-f]isoindol-9-yl)piperidine-2,6-dione]",8.00 to 9.00,
10 to 100 nM,"O=C1CCC(N2Cc3cc4c(cc3C2=O)OC[C@@H]2CN(CC3CCC5(CN(c6ccc([C@@H]7c8ccc(O)cc8CC[C@@H]7c7ccccc7)cc6)C5)OC3)CCN42)C(=O)N1 (stereo partly drawn) [Compound B334, 3-((4aS)-3-((2-(4-((1R,2S)-6-hydroxy-2-phenyl-1,2,3,4-tetrahydronaphthalen-1-yl)phenyl)-5-oxa-2-azaspiro[3.5]nonan-7-yl)methyl)-8-oxo-1,2,3,4,4a,5,8,10-octahydro-9H-pyrazino[1′,2′:4,5][1,4]oxazino[2,3-f]isoindol-9-yl)piperidine-2,6-dione]",> 9.00,

# More lines, now with the values behind:
SMILES,DC50 [2],pIC50 ([1]; T47D cell line),pIC50 [1]
"O=C1CC[C@H](N2Cc3c(ccc4c3OC[C@H]3CN(CC5CCC6(CN(c7ccc([C@@H]8c9ccc(O)cc9CC[C@@H]8c8ccccc8)cc7)C6)OC5)CCN43)C2=O)C(=O)N1 (stereo partly drawn) [Compound B333, (3S)-3-((5aR)-7-((2-(4-((1R,2S)-6-hydroxy-2-phenyl-1,2,3,4-tetrahydronaphthalen-1-yl)phenyl)-5-oxa-2-azaspiro[3.5]nonan-7-yl)methyl)-1-oxo-1,3,5,5a,6,7,8,9-octahydro-2H-pyrazino[1′,2′:4,5][1,4]oxazino[2,3-e]isoindol-2-yl)piperidine-2,6-dione]",< 10 nM,> 9.00,
"O=C1CCC(N2Cc3c(ccc4c3OCC43CCN(CC(=O)N4CCC5(CC4)CN(c4ccc([C@@H]6c7ccc(O)cc7CC[C@@H]6c6ccccc6)cc4)C5)CC3)C2=O)C(=O)N1 (stereo partly drawn) [Compound B213, 3-(1′-(2-(2-(4-((1R,2S)-6-hydroxy-2-phenyl-1,2,3,4-tetrahydronaphthalen-1-yl)phenyl)-2,7-diazaspiro[3.5]nonan-7-yl)-2-oxoethyl)-6-oxo-6,8-dihydro-2H,7H-spiro[furo[2,3-e]isoindole-3,4′-piperidin]-7-yl)piperidine-2,6-dione]",< 10 nM,,> 9.00
"O=C1CCC(N2Cc3c(ccc4c3OCC43CCN(CC4COC5(CCN(c6ccc([C@@H]7c8ccc(O)cc8CC[C@@H]7c7ccccc7)cc6)CC5)C4)CC3)C2=O)C(=O)N1 (stereo partly drawn) [Compound B229, 3-(1′-((8-(4-((1R,2S)-6-hydroxy-2-phenyl-1,2,3,4-tetrahydronaphthalen-1-yl)phenyl)-1-oxa-8-azaspiro[4.5]decan-3-yl)methyl)-6-oxo-6,8-dihydro-2H,7H-spiro[furo[2,3-e]isoindole-3,4′-piperidin]-7-yl)piperidine-2,6-dione]",10 to 100 nM,,8.00 to 9.00
"O=C1CCC(N2C(=O)c3cc4c(cc3C2=O)CN(CC(=O)N2CC3(CC(Nc5ccc([C@@H]6c7ccc(O)cc7CC[C@@H]6c6ccccc6)cc5)C3)C2)C4)C(=O)N1 (stereo partly drawn) [Compound B163, 2-(2,6-dioxopiperidin-3-yl)-6-(2-(6-((4-((1R,2S)-6-hydroxy-2-phenyl-1,2,3,4-tetrahydronaphthalen-1-yl)phenyl)amino)-2-azaspiro[3.3]heptan-2-yl)-2-oxoethyl)-6,7-dihydropyrrolo[3,4-f]isoindole-1,3(2H,5H)-dione]",< 10 nM,8.00 to 9.00,
